How the values were obtained:
Assay type in all cases: physicochemical
Solubility in PGMEA = settings: concentration when PGMEA was added dropwise to 0.1 g of the compound under stirring and was dissolved completely
Method: (§1) That the obtained solid was an intended product was confirmed by ^1H-NMR and IR. Furthermore, the solubility of the obtained compound was measured. The solubility was a concentration when PGMEA was added dropwise to 0.1 g of the compound under stirring and was dissolved completely. The results thereof are shown in [Table 1] to [Table 4].
as §1, with “added” for “added dropwise”, “while” for “under”, “4]” for “4].”

[1] = Evaluation of absorption wavelength property in CHCl3 solution; parameters: ε: unit not given here; settings: for ε: molar absorption coefficient
Excerpt: The absorption wavelength properties of Compounds Nos. 1 to 7, 16, 26, 43, 52 to 62, 65, 66, 69, 70 and 94 to 102 and Comparative Compounds Nos. 1 and 2 obtained above were each evaluated in a CHCl3 solution. The results are shown in [Table 5].

[2] = Evaluation of heat resistance by TG-DTA; settings: temperature at 10% weight loss
Method: Compounds Nos. 1 to 7, 16, 26, 43, 52 to 62, 65, 66, 69, 70 and 94 to 102 and Comparative Compounds Nos. 1 and 2 obtained above were analyzed by TG-DTA, and the melting points and temperatures at 10% weight loss were measured. The results are shown in [Table 6].

[3] = Heat resistance of exposed coating film of coloring alkali-developable photosensitive composition; settings: for Relative intensity After exposure: coating film after exposure (150 mJ/cm^2), before heating; for λmax: coating film of composition containing the compound, on glass; for Relative intensity 230° C., 30 min: exposed coating film after 230° C.
Excerpt: 30.33 g of ACA Z250 (manufactured by Daicel Cytec Company Ltd.) and 11.04 g of ARONIX M-450 (manufactured by Toagosei Co., Ltd.) as the component (B), 1.93 g of IRGACURE 907 (manufactured by BASF) as the component (C), 36.60 g of PGMEA and 20.08 g of cyclohexanone as the component (E), as well as 0.01 g of FZ2122 (manufactured by Dow Corning Toray Co., Ltd.) as other component were mixed and stirred until insoluble components were diminished to give Alkali-developable photosensitive composition No. 1.
1.90 g of dimethylacetamide was added to 0.10 g of Compound No. 1 obtained above as the component (A) and dissolved under stirring.
5.0 g of Alkali-developable photosensitive composition No. 1 obtained in Step 1 and 1.0 g of Dye liquid No. 1 obtained in Step 2 were mixed and stirred to homogeneous to give Coloring alkali-developable photosensitive composition No. 1 of the present invention.
Coloring alkali-developable photosensitive compositions Nos. 2 to 20 were obtained in a similar manner to that in Example 2-1, except that Compound No. 1 as the component (A) in Step 2 of Example 2-1 was changed to Compound No. 2, 3, 5, 6, 16, 53, 56, 57, 59, 60, 65, 66, 94 or 96 to 101 obtained above.
Comparative coloring alkali-developable photosensitive compositions Nos. 1 and 2 were obtained in a similar manner to that in Example 2-1, except that Compound No. 1 as the component (A) in Step 2 of Example 2-1 was changed to Comparative Compound No. 1 or 2.
The coloring alkali-developable photosensitive compositions obtained in Example 2 were each applied to a glass basal plate under a condition of 410 rpm×7 sec and dried (90° C., 90 sec) on a hot plate. The obtained coating film was exposed (150 mJ/cm^2) by using an ultrahigh pressure mercury lamp. The heat resistance of the exposed coating film was investigated under conditions of 180° C.×60 min and 230° C.×30 min. The results are shown in [Table 7].
Using the coloring alkali-developable photosensitive compositions obtained in Examples 2-2 to 2-20 and Comparative Examples 2-1 and 2-2, heat resistance was investigated in a similar manner to that in Evaluation Example 3. The results are shown in [Table 7].

Structure (SMILES) | Solubility (PGMEA) (Solubility in PGMEA) | λmax [1] [nm] | ε [1] | 10% weight loss [2] [°C] | Relative intensity After exposure [3] | λmax [3] [nm] | Relative intensity 230° C., 30 min [3]
CCN(CC)c1ccc(/C=C(\C#N)C(=O)OCC(CC)(COC(=O)/C(C#N)=C/c2ccc(N(CC)CC)cc2)COC(=O)/C(C#N)=C/c2ccc(N(CC)CC)cc2)cc1 [Compound No. 57] | 1.0 or less wt % | 437 | 152000 | 339 | 100 | 430 | 99.9
CN(CCO)c1ccc(/C=C(\C#N)C(=O)OCCCCCCOC(=O)/C(C#N)=C/c2ccc(N(C)CCO)cc2)cc1 [Compound No. 59] | 1.0 or less wt % | 420 | 89900 | 295 | 100 | 431 | 99.7
N#C/C(=C\c1ccc(N2CCOCC2)cc1)C(=O)OCCCCCCCOC(=O)/C(C#N)=C/c1ccc(N2CCOCC2)cc1 [Compound No. 60] | 1.0 or less wt % | 405 | 71700 | 350 | 100 | 408 | 73.8
N#C/C(=C\c1ccc(N(c2ccccc2)c2ccccc2)cc1)C(=O)OCCCCCCCOC(=O)/C(C#N)=C/c1ccc(N(c2ccccc2)c2ccccc2)cc1 [Compound No. 65] | 5.3 wt % | 435 | 65300 | 354 | 100 | 430 | 99.3
C=C(C)C(=O)OCCN(C)c1ccc(/C=C(\C#N)C(=O)OCCCCCCOC(=O)/C(C#N)=C/c2ccc(N(C)CCOC(=O)C(=C)C)cc2)cc1 [Compound No. 66] | 1.0 or less wt % | 419 | 94100 | 354 | 100 | 419 | 99.2
CCN(CC)c1ccc(/C=C(\C#N)C(=O)OCC(C)(COC(=O)/C(C#N)=C/c2ccc(N(CC)CC)cc2)COC(=O)/C(C#N)=C/c2ccc(N(c3ccccc3)c3ccccc3)cc2)cc1 (stereo not drawn) [Compound No. 96] | 10.0 wt % | 437 | 138000 | 347 | 100 | 433 | 99.5
CCN(CC)c1ccc(/C=C(\C#N)C(=O)OCC(C)(COC(=O)/C(C#N)=C/c2ccc(N3CCOCC3)cc2)COC(=O)/C(C#N)=C/c2ccc(N3CCOCC3)cc2)cc1 [Compound No. 97] | 10.0 wt % | 417 | 103000 | 334 | 100 | 417 | 98.2
CN(CCO)c1ccc(/C=C(\C#N)C(=O)OCC(C)(COC(=O)/C(C#N)=C/c2ccc(N(C)CCO)cc2)COC(=O)/C(C#N)=C/c2ccc(N(C)CCO)cc2)cc1 [Compound No. 98] | 1.0 or less wt % | 428 | 119000 | 288 | 100 | 431 | 99.5
CCN(CC)c1ccc(/C=C(\C#N)C(=O)OCC(C)(COC(=O)/C(C#N)=C/c2ccc(N(C)CCO)cc2)COC(=O)/C(C#N)=C/c2ccc(N(C)CCO)cc2)cc1 [Compound No. 99] | 1.0 or less wt % | 431 | 130000 | 320 | 100 | 433 | 99.6
